Experimental data from the supplement of paper PMC10307832.

How the values were obtained:
Assay in all cases: relative viability (nuclei count vs DMSO), 5 days (fraction); higher = more cells survive
XMD13-2 + Palbociclib = compound: C1CC1C(=O)NC2=NNC3=C2C=CC(=C3)C4=CC(=CC=C4)C(=O)NC5CC5 [XMD13-2] + CC(=O)c1c(C)c2cnc(Nc3ccc(N4CCNCC4)cn3)nc2n(C2CCCC2)c1=O [Palbociclib] (partner 0.5 µM)
Procedure, shortened: (§1)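 A single step with final 0.05% Triton X-100, 1% formaldehyde and 1 ug/ml Hoechst fixed the cells and stained nuclei 5 days after treatment. Lung cancer cell lines in 1536-well plates had been treated by pin tool the day after seeding with one drug alone or a fixed anchor-drug dose plus five library-drug doses (not always all listed) in √10 steps, and nuclei were counted on 4× images. Relative viability is the ratio of nuclei in treated wells to nuclei in vehicle wells, taken as the median of duplicate plates.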

XMD13-2 + Phenformin = compound: C1CC1C(=O)NC2=NNC3=C2C=CC(=C3)C4=CC(=CC=C4)C(=O)NC5CC5 [XMD13-2] + N=C(N)NC(=N)NCCc1ccccc1 [Phenformin] (partner 250 µM)
Procedure, shortened: as §1

[1] = compound: Cc1ccc(C(=O)Nc2cccc(C(F)(F)F)c2)cc1Nc1cncc(C(N)=O)c1 [ALW-II-49-7] + CC(=O)c1c(C)c2cnc(Nc3ccc(N4CCNCC4)cn3)nc2n(C2CCCC2)c1=O [Palbociclib] (partner 0.5 µM)
Procedure, shortened: as §1

Dasatinib + Decitabine = compound: Cc1nc(Nc2ncc(C(=O)Nc3c(C)cccc3Cl)s2)cc(N2CCN(CCO)CC2)n1 [Dasatinib] + Nc1ncn([C@H]2C[C@H](O)[C@@H](CO)O2)c(=O)n1 [Decitabine] (partner 2 µM)
Procedure, shortened: as §1

Cell Line | relative viability (XMD13-2 + Palbociclib; first compound 0.05 µM) | relative viability (XMD13-2 + Palbociclib; first compound 0.1581 µM) | relative viability (XMD13-2 + Palbociclib; first compound 0.5 µM) | relative viability (XMD13-2 + Palbociclib; first compound 1.581 µM) | relative viability (XMD13-2 + Palbociclib; first compound 5 µM) | relative viability (XMD13-2 + Phenformin; first compound 0.05 µM) | relative viability (XMD13-2 + Phenformin; first compound 0.1581 µM) | relative viability (XMD13-2 + Phenformin; first compound 0.5 µM) | relative viability (XMD13-2 + Phenformin; first compound 1.581 µM) | relative viability (XMD13-2 + Phenformin; first compound 5 µM) | relative viability ([1]; first compound 0.08 µM) | relative viability ([1]; first compound 0.253 µM) | relative viability ([1]; first compound 0.8 µM) | relative viability ([1]; first compound 2.53 µM) | relative viability ([1]; first compound 8 µM) | relative viability (Dasatinib + Decitabine; first compound 0.005 µM) | relative viability (Dasatinib + Decitabine; first compound 0.01581 µM) | relative viability (Dasatinib + Decitabine; first compound 0.05 µM) | relative viability (Dasatinib + Decitabine; first compound 0.1581 µM) | relative viability (Dasatinib + Decitabine; first compound 0.5 µM)
NCI-H1666 | 0.629 | 0.685 | 0.67 | 0.665 | 0.675 | 0.544 | 0.6 | 0.595 | 0.546 | 0.593 | 0.663 | 0.655 | 0.692 | 0.67 | 0.666 | 0.725 | 0.691 | 0.73 | 0.656 | 0.521
NCI-H1734 | 0.413 | 0.332 | 0.361 | 0.358 | 0.297 | 0.463 | 0.354 | 0.391 | 0.386 | 0.363 | 0.293 | 0.376 | 0.355 | 0.319 | 0.296 | 0.508 | 0.48 | 0.533 | 0.412 | 0.321
NCI-H1755 | 0.468 | 0.444 | 0.457 | 0.474 | 0.409 | 0.643 | 0.666 | 0.596 | 0.642 | 0.677 | 0.439 | 0.498 | 0.41 | 0.415 | 0.431 | 0.682 | 0.641 | 0.602 | 0.509 | 0.323
NCI-H1792 | 0.773 | 0.691 | 0.686 | 0.765 | 0.687 | 0.29 | 0.306 | 0.259 | 0.324 | 0.352 | 0.564 | 0.454 | 0.471 | 0.522 | 0.548 | 0.544 | 0.51 | 0.469 | 0.342 | 0.178
NCI-H1793 | 0.357 | 0.34 | 0.327 | 0.324 | 0.273 | 0.436 |  | 0.409 | 0.393 | 0.36 | 0.323 | 0.278 | 0.29 | 0.291 | 0.33 | 0.504 | 0.427 | 0.295 | 0.328 | 0.323
NCI-H1915 | 0.56 | 0.509 | 0.529 | 0.481 | 0.509 | 0.381 | 0.362 | 0.367 | 0.371 | 0.379 | 0.618 | 0.595 | 0.543 | 0.453 | 0.414 | 0.291 | 0.249 | 0.231 | 0.224 | 0.144
NCI-H1944 | 0.323 | 0.312 | 0.325 | 0.351 | 0.322 | 0.219 | 0.224 | 0.225 | 0.23 | 0.203 | 0.353 | 0.32 | 0.327 | 0.346 | 0.351 | 0.439 | 0.39 | 0.36 | 0.272 | 0.189
NCI-H1975 | 0.77 | 0.607 | 0.538 | 0.678 | 0.61 | 0.436 | 0.395 | 0.407 | 0.42 | 0.401 | 0.608 | 0.58 | 0.459 | 0.59 | 0.44 | 0.377 | 0.384 | 0.368 | 0.266 | 0.224
NCI-H1993 | 0.641 | 0.484 | 0.722 | 0.606 | 0.547 | 0.456 | 0.493 | 0.55 | 0.553 | 0.566 | 0.717 | 0.717 | 0.571 | 0.705 | 0.684 | 0.503 | 0.477 | 0.67 | 0.456 | 0.407
NCI-H2009 | 0.244 | 0.229 | 0.215 | 0.204 | 0.153 | 0.473 | 0.486 | 0.54 | 0.454 | 0.517 | 0.211 | 0.264 | 0.242 | 0.203 | 0.199 | 0.403 | 0.384 | 0.314 | 0.216 | 0.122
NCI-H2023 | 0.436 | 0.373 | 0.439 | 0.328 | 0.363 | 0.561 | 0.434 | 0.399 | 0.428 | 0.426 | 0.325 | 0.344 | 0.36 | 0.4 | 0.428 | 0.262 | 0.226 | 0.216 | 0.214 | 0.209
NCI-H2085 | 0.488 | 0.477 | 0.481 | 0.429 | 0.472 | 0.825 | 0.715 | 0.759 | 0.661 | 0.802 | 0.441 | 0.448 | 0.466 | 0.432 | 0.454 | 0.616 | 0.424 | 0.385 | 0.264 | 0.25
NCI-H2087 | 0.248 | 0.261 | 0.184 | 0.184 | 0.258 | 0.479 | 0.487 | 0.515 | 0.498 | 0.362 | 0.227 | 0.261 | 0.239 | 0.255 | 0.22 | 0.301 | 0.336 | 0.259 | 0.145 | 0.113
NCI-H2126 | 0.385 | 0.398 | 0.309 | 0.336 | 0.323 | 0.531 | 0.474 | 0.522 | 0.522 | 0.553 | 0.367 | 0.332 | 0.337 | 0.365 | 0.374 | 0.567 | 0.51 | 0.553 | 0.437 | 0.351
NCI-H2170 | 0.392 | 0.4 | 0.399 | 0.407 | 0.319 | 0.482 | 0.433 | 0.424 | 0.399 | 0.398 | 0.367 | 0.451 | 0.381 | 0.403 | 0.364 | 0.439 | 0.422 | 0.392 | 0.344 | 0.225
NCI-H2342 | 0.517 | 0.522 | 0.546 | 0.488 | 0.502 | 0.567 | 0.602 | 0.597 | 0.642 | 0.651 | 0.496 | 0.541 | 0.515 | 0.499 | 0.488 | 0.685 | 0.598 | 0.632 | 0.51 | 0.321
